Experiments:
c-Abl kinase domain [1] = target: T1, c-Abl kinase domain (Mus musculus, UniProt P00520); test: ADP-Quest continuous fluorimetric kinase assay (Michaelis-Menten parameters and initial rates); format: biochemical; details: peptide 100 μM, kinase 10–50 nM; Figure 2C
T1 sequence (P00520 242-493 limits assumed): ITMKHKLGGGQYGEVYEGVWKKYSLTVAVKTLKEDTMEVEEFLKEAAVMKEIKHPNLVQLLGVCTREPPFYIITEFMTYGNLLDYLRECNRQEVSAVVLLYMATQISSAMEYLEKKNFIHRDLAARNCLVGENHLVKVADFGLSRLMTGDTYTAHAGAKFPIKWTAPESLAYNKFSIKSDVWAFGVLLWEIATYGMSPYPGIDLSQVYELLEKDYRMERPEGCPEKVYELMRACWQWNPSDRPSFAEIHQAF

c-Src kinase domain [2] = target: T2, c-Src kinase domain (Homo sapiens, UniProt P12931); test: as above; format: biochemical
EPHB1 kinase domain = test: pTyr-Var library bacterial peptide display kinase screen (enrichment scores); format: biochemical, human; details: mean of log2 enrichment of reference peptide, n = 4
SHP2 C-SH2 domain = test: pTyr-Var library SH2 domain screen with SH2-dynabeads (enrichment scores); details: R1-R3
c-Src SH2 domain = c-Src SH2 domain (Homo sapiens, UniProt P12931); test: as above; details: mean of log2 enrichment of reference peptide, R1-R3; sheet c-Src
Jak2 = test: pTyr-Var library bacterial peptide display kinase screen (enrichment scores); format: biochemical, human; details: for Jak2 mean of log2(enrichment): mean of log2 of enrichment over R1-R3; for Jak2 enrich. R1 / Jak2 enrich. R3: pTyr-Var library, enrichment score; for Jak2 enrich. R1: replicate 1; for Jak2 enrich. R3: replicate 3
Grb2 SH2 domain = test: pTyr-Var library SH2 domain screen with SH2-dynabeads (enrichment scores); details: R1-R3
c-Abl kinase domain [3] = target: T1, c-Abl kinase domain; test: pTyr-Var library bacterial peptide display kinase screen (enrichment scores); format: biochemical; details: for c-Abl mean of log2(enrichment): mean of log2 of enrichment over R1-R4; for c-Abl enrich. R1 / c-Abl enrich. R3 / c-Abl enrich. R4: pTyr-Var library, enrichment score; for c-Abl enrich. R1: replicate 1; for c-Abl enrich. R3: replicate 3; for c-Abl enrich. R4: replicate 4
FGFR3 kinase domain = test: as above; format: biochemical, human; details: n = 5
AncSZ kinase domain = test: as above; format: biochemical; details: for AncSZ mean of log2(enrichment): mean of log2 of enrichment over R1-R5; for AncSZ enrich. R1 / AncSZ enrich. R3 / AncSZ enrich. R4 / AncSZ enrich. R5: pTyr-Var library, enrichment score; for AncSZ enrich. R1: replicate 1; for AncSZ enrich. R3: replicate 3; for AncSZ enrich. R4: replicate 4; for AncSZ enrich. R5: replicate 5
Fes = test: as above; format: biochemical; details: mean of log2 of enrichment over R1-R6
EPHB2 kinase domain = test: as above; format: biochemical, human; details: mean of log2 enrichment of reference peptide, n = 4
FGFR1 kinase domain = test: as above; format: biochemical, human; details: n = 5
Fer kinase domain = test: as above; format: biochemical, mouse; details: for Fer mean of log2(enrichment): mean of log2 of enrichment over R1-R4; for Fer enrich. R1 / Fer enrich. R3 / Fer enrich. R4: pTyr-Var library, enrichment score; for Fer enrich. R1: replicate 1; for Fer enrich. R3: replicate 3; for Fer enrich. R4: replicate 4
MERTK kinase domain = test: as above; format: biochemical, human; details: for mean of log2(reference): mean of log2 enrichment of reference peptide, n = 4
Fyn kinase domain = test: as above; format: biochemical, human; details: for Fyn mean of log2(enrichment): mean of log2 of enrichment over R1-R4; for Fyn enrich. R1 / Fyn enrich. R3 / Fyn enrich. R4: pTyr-Var library, enrichment score; for Fyn enrich. R1: replicate 1; for Fyn enrich. R3: replicate 3; for Fyn enrich. R4: replicate 4
c-Src kinase domain [4] = target: T2, c-Src kinase domain; test: as above; format: biochemical; details: for c-Src mean of log2(enrichment): mean of log2 of enrichment over R1-R4; for c-Src enrich. R1 / c-Src enrich. R3 / c-Src enrich. R4: pTyr-Var library, enrichment score; for c-Src enrich. R1: replicate 1; for c-Src enrich. R3: replicate 3; for c-Src enrich. R4: replicate 4
Hck kinase domain = test: as above; format: biochemical, human; details: for Hck mean of log2(enrichment): mean of log2(variant) / mean of log2(reference), R1-R4; for Hck enrich. R1 / Hck enrich. R3 / Hck enrich. R4: pTyr-Var library, enrichment score; for Hck enrich. R1: replicate 1; for Hck enrich. R3: replicate 3; for Hck enrich. R4: replicate 4
[5] = ADP-Quest assay, c-Src kinase domain 10 nM, 100 μM ATP, 37 °C, three to five replicates, error = standard error of global Michaelis-Menten fit

Substance	mean of log2(reference) (EPHB1 kinase domain)	mean of log2(reference) (SHP2 C-SH2 domain)	mean of log2(reference) (c-Src SH2 domain)	Jak2 mean of log2(enrichment) (Jak2)	Jak2 enrich. R1 (Jak2)	Jak2 enrich. R3 (Jak2)	mean of log2(reference) (Grb2 SH2 domain)	c-Abl mean of log2(enrichment) (c-Abl kinase domain [3])	c-Abl enrich. R1 (c-Abl kinase domain [3])	c-Abl enrich. R3 (c-Abl kinase domain [3])	c-Abl enrich. R4 (c-Abl kinase domain [3])	mean of log2(reference) (FGFR3 kinase domain)	AncSZ mean of log2(enrichment) (AncSZ kinase domain)	AncSZ enrich. R1 (AncSZ kinase domain)	AncSZ enrich. R3 (AncSZ kinase domain)	AncSZ enrich. R4 (AncSZ kinase domain)	AncSZ enrich. R5 (AncSZ kinase domain)	Fes mean of log2(enrichment) (Fes)	mean of log2(reference) (EPHB2 kinase domain)	mean of log2(reference) (FGFR1 kinase domain)	also measured
Ac-GPDECIYDMFPFKKKG-NH2 [Src Consensus, c-Src consensus substrate peptide from X5-Y-X5 screen]	–	–	–	–	–	–	–	–	–	–	–	–	–	–	–	–	–	–	–	–	phosphorylation of consensus peptide by c-Abl (initial rate relative to cognate consensus) (c-Abl kinase domain [1]): efficiently phosphorylated; Km (c-Src kinase domain [2]; [5]): 196 ± 38 µM; kcat (c-Src kinase domain [2]; [5]): 4.9±0.4 s^–1; phosphorylation of consensus peptide by c-Src (initial rate relative to cognate consensus) (c-Src kinase domain [2]; high concentration: peptide 100 μM, kinase 10–50 nM, Figure 2C): selective
GMAHNYRNSSQ [AASS_Y188]	-2.084	-0.8121	-1.119	-1.234	0.5584	0.3848	-0.5728	-1.694	0.3586	0.2586	0.2717	-1.231	-0.7891	0.6022	0.4422	0.5318	0.777	-1.191	-1.13	-1.437	Fer mean of log2(enrichment) (Fer kinase domain): -1.39; Fer enrich. R1 (Fer kinase domain): 0.41; Fer enrich. R3 (Fer kinase domain): 0.4208; Fer enrich. R4 (Fer kinase domain): 0.3128; mean of log2(reference) (MERTK kinase domain): -1.316; ref. mean (MERTK kinase domain; pTyr-Var library, reference peptide enrichment, mean of n = 4): 0.4184; Fyn mean of log2(enrichment) (Fyn kinase domain): -1.328; Fyn enrich. R1 (Fyn kinase domain): 0.4068; Fyn enrich. R3 (Fyn kinase domain): 0.5016; Fyn enrich. R4 (Fyn kinase domain): 0.6969; c-Src mean of log2(enrichment) (c-Src kinase domain [4]): -1.404; c-Src enrich. R1 (c-Src kinase domain [4]): 0.429; c-Src enrich. R3 (c-Src kinase domain [4]): 0.2705; c-Src enrich. R4 (c-Src kinase domain [4]): 0.4776; Hck mean of log2(enrichment) (Hck kinase domain): 0.4135; Hck enrich. R1 (Hck kinase domain): 0.473; Hck enrich. R3 (Hck kinase domain): 0.3667; Hck enrich. R4 (Hck kinase domain): 0.3337
TTGLIYIGSHD [AASDH_Y870]	-0.5976	-0.7271	-0.7916	-0.485	0.7507	0.724	0.04072	-1.045	0.5107	0.4932	0.3951	-0.6492	-0.4681	0.7227	0.6145	0.7736	0.7032	-0.4107	-0.8783	-1.189	Fer mean of log2(enrichment) (Fer kinase domain): -1.298; Fer enrich. R1 (Fer kinase domain): 0.3587; Fer enrich. R3 (Fer kinase domain): 0.5035; Fer enrich. R4 (Fer kinase domain): 0.5633; mean of log2(reference) (MERTK kinase domain): -1.687; Fyn mean of log2(enrichment) (Fyn kinase domain): -1.48; Fyn enrich. R1 (Fyn kinase domain): 0.4689; Fyn enrich. R3 (Fyn kinase domain): 0.3674; Fyn enrich. R4 (Fyn kinase domain): 0.214; c-Src mean of log2(enrichment) (c-Src kinase domain [4]): -1.294; c-Src enrich. R1 (c-Src kinase domain [4]): 0.3921; c-Src enrich. R3 (c-Src kinase domain [4]): 0.3853; c-Src enrich. R4 (c-Src kinase domain [4]): 0.4379; Hck mean of log2(enrichment) (Hck kinase domain): 0.4597; Hck enrich. R1 (Hck kinase domain): 0.6399; Hck enrich. R3 (Hck kinase domain): 0.4036; Hck enrich. R4 (Hck kinase domain): 0.2897

From article PMC10065799, “High-throughput profiling of sequence recognition by tyrosine kinases and SH2 domains using bacterial peptide display” (eLife, 2023)
